Test results taken from BindingDB's records for patent WO2022076495 (MERCK SHARP & DOHME CORP., 2022).
Values joined by “and” are separate entries in the source; they are usually repeats but may differ in a detail not shown here. Equal entries are not always repeated.

Target: T1, Diacylglycerol O-acyltransferase 2 (Homo sapiens, UniProt Q96PD7)
T1 sequence (Q96PD7 whole entry): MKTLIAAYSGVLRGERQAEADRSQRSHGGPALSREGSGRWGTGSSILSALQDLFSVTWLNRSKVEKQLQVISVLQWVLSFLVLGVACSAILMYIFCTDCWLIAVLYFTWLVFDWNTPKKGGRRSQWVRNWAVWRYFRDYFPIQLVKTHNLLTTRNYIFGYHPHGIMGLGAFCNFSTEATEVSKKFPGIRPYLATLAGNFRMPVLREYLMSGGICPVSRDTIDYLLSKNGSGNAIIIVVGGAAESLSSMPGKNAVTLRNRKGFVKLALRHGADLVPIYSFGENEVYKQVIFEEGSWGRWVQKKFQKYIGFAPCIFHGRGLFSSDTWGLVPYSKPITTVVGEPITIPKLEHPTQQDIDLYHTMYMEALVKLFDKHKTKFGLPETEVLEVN
Test: DGAT2 enzymatic activity assay
Protocol: DGAT2 activity was determined by measuring the amount of enzymatic product 13Ci8-triolein (13C-l,2,3-Tri(cis-9-octadecenoyl)glycerol) using the membrane prep mentioned above. The assay was carried out in ABgene 384-well assay plates in a final volume of 25 pL at rt. The assay mixture contained the following: assay buffer (100 mM Tris Cl, pH 7.0, 20 mM MgCl2, 5% ethanol), 25 pM of di olein, 5 μM of 13C oleoyl-CoA and 8 ng/pL of DGAT2 membrane.

IC50	Compound
1260 nM	CC(C)n1c(=O)n(-c2cccc(OC(F)F)c2)c2cc(F)c(C(=O)N[C@H]3CCOC[C@@H]3O)cc21 [WO2022076495, EXAMPLE 29]
92 nM	CC[C@H](C)n1c(=O)n(-c2cccc(OC(F)F)c2)c2ccc(C(=O)NC3(C)CS(=O)(=O)C3)cc21 [WO2022076495, EXAMPLE 46b]
62 nM	CC(C)n1c(=O)n(-c2cccc(OC(F)F)c2)c2ncc(C(=O)NC3(C)CCS(=O)(=O)CC3)cc21 [WO2022076495, EXAMPLE 88]
6.6 nM	C[C@@H](n1c(=O)n(-c2cc(OCC(F)F)ncc2F)c2ccc(C(=O)NC3(C)CCS(=O)(=O)CC3)cc21)C(C)(C)O [WO2022076495, EXAMPLE 72b]
71 nM	CC(C)n1c(=O)n(-c2cccc(OC(F)F)c2)c2cc(F)c(C(=O)N[C@H]3CCCC[C@@H]3O)cc21 [WO2022076495, EXAMPLE 35]
16 nM	CC(C)n1c(=O)n(-c2cccc(OC(F)(F)C(F)(F)F)c2)c2ccc(C(=O)NC3(C)CS(=O)(=O)C3)cc21 [WO2022076495, EXAMPLE 7]
17 nM	C[C@@H](n1c(=O)n(-c2cc(OC(F)F)ccc2F)c2ccc(C(=O)NC3(C)CCS(=O)(=O)CC3)cc21)C(C)(C)O [WO2022076495, EXAMPLE 66b]
6.5 nM	C[C@@H](n1c(=O)n(-c2cc(OCC(F)F)ncc2F)c2cc(F)c(C(=O)NC3(C)CCS(=O)(=O)CC3)cc21)C(C)(C)O [WO2022076495, EXAMPLE 74b]
0.7 nM	CC(n1c(=O)n(-c2cc(OC(F)F)ccc2F)c2ccc(C(=O)NC3(C)CS(=O)(=O)C3)cc21)C(C)(C)O (stereo unspecified) [WO2022076495, EXAMPLE 65]
13 nM	CCOc1cc(-n2c(=O)n([C@@H](C)C(C)(C)O)c3cc(C(=O)NC4(C)CS(=O)(=O)C4)ccc32)c(F)cn1 [WO2022076495, EXAMPLE 78b]
194 nM	CCn1c(=O)n(-c2cccc(OC(F)F)c2)c2cc(F)c(C(=O)NC3(C)CS(=O)(=O)C3)cc21 [WO2022076495, EXAMPLE 40]
211 nM	C[C@@H](n1c(=O)n(-c2cccc(OC(F)F)c2)c2ccc(C(=O)NC3(C)CCS(=O)(=O)CC3)cc21)C(C)(C)O [WO2022076495, EXAMPLE 67b]
3.9 nM	CCOc1cc(-n2c(=O)n([C@H](C)C(C)(C)O)c3cc(C(=O)NC4(C)CCS(=O)(=O)CC4)ccc32)c(F)cn1 [WO2022076495, EXAMPLE 69b]
30 nM	C[C@@H](n1c(=O)n(-c2cc(OC(F)(F)F)ccc2F)c2cc(F)c(C(=O)NC3(C)CCS(=O)(=O)CC3)cc21)C(C)(C)O [WO2022076495, EXAMPLE 70b]
779 nM	CC(C)n1c(=O)n(-c2cccc(OC(F)F)c2)c2cc(F)c(C(=O)N[C@H]3CCC[C@@H]3O)cc21 [WO2022076495, EXAMPLE 28]
7.9 nM	C[C@H](n1c(=O)n(-c2cccc(OC(F)(F)C(F)F)c2)c2ccc(C(=O)NC3(C)CS(=O)(=O)C3)cc21)C(C)(C)O [WO2022076495, EXAMPLE 76b]
80 nM	C[C@@H](n1c(=O)n(-c2cccc(OC(F)(F)C(F)F)c2)c2ccc(C(=O)NC3(C)CS(=O)(=O)C3)cc21)C(C)(C)O [WO2022076495, EXAMPLE 76a]
3.3 nM	C[C@@H](n1c(=O)n(-c2cc(OCC(F)F)ccc2F)c2ccc(C(=O)NC3(C)CCS(=O)(=O)CC3)cc21)C(C)(C)O [WO2022076495, EXAMPLE 73b]
5.5 nM	CC(C)n1c(=O)n(-c2cc(OC(F)(F)C(F)F)ncc2F)c2cc(F)c(C(=O)NC3(C)CCS(=O)(=O)CC3)cc21 [WO2022076495, EXAMPLE 118]
2.4 nM	C[C@@H](n1c(=O)n(-c2cc(OCC(F)F)ccc2F)c2cc(F)c(C(=O)NC3(C)CCS(=O)(=O)CC3)cc21)C(C)(C)O [WO2022076495, EXAMPLE 75b]
4.1 nM	C[C@H](n1c(=O)n(-c2cccc(OCC(F)F)c2)c2ccc(C(=O)NC3(C)CCS(=O)(=O)CC3)cc21)C(C)(C)O [WO2022076495, EXAMPLE 68a]
74 nM	CC(C)n1c(=O)n(-c2cc(OC(F)F)ccc2F)c2ncc(C(=O)NC3(C)CCS(=O)(=O)CC3)cc21 [WO2022076495, EXAMPLE 103]
12 nM	C[C@H](C(F)F)n1c(=O)n(-c2cccc(OC(F)F)c2)c2ccc(C(=O)NC3(C)CCS(=O)(=O)CC3)cc21 [WO2022076495, EXAMPLE 45a]
106 nM	CC(C)n1c(=O)n(-c2cccc(OC(F)F)c2)c2cc(F)c(C(=O)N[C@@H]3CCCC[C@H]3O)cc21 [WO2022076495, EXAMPLE 31]
37 nM	CC(C)(O)Cn1c(=O)n(-c2cccc(OC(F)F)c2)c2ccc(C(=O)NC3(C)CS(=O)(=O)C3)cc21 [WO2022076495, EXAMPLE 64]
1 nM	C[C@H](n1c(=O)n(-c2cc(OC(F)(F)F)ccc2F)c2cc(F)c(C(=O)NC3(C)CCS(=O)(=O)CC3)cc21)C(C)(C)O [WO2022076495, EXAMPLE 70a]
31 nM	CC(C)n1c(=O)n(-c2cccc(OC(F)F)c2)c2cc(F)c(C(=O)N[C@H]3CCCC(F)(F)[C@H]3O)cc21 [WO2022076495, EXAMPLE 30]
9.7 nM	CCOc1cc(-n2c(=O)n([C@@H](C)C(C)(C)O)c3cc(C(=O)NC4(C)CCS(=O)(=O)CC4)ccc32)c(F)cn1 [WO2022076495, EXAMPLE 69a]
9.8 nM	C[C@@H](n1c(=O)n(-c2cccc(OC(F)(F)C(F)F)c2)c2cc(F)c(C(=O)NC3(C)CCS(=O)(=O)CC3)cc21)C(C)(C)O [WO2022076495, EXAMPLE 77b]

Continued, compound first:

Compound	IC50
C[C@H](n1c(=O)n(-c2cc(OC(F)F)ccc2F)c2ccc(C(=O)NC3(C)CCS(=O)(=O)CC3)cc21)C(C)(C)O [WO2022076495, EXAMPLE 66a]	1.1 nM
CC1(NC(=O)c2cc3c(cc2F)n(-c2cccc(OC(F)F)c2)c(=O)n3CC(F)(F)F)CS(=O)(=O)C1 [WO2022076495, EXAMPLE 43]	202 nM
CC(C)n1c(=O)n(-c2cccc(OC(F)F)c2)c2ccc(C(=O)NC3(C)CS(=O)(=O)C3)cc21 [WO2022076495, EXAMPLE 12]	88 nM and 122 nM
C[C@H](n1c(=O)n(-c2cc(OCC(F)F)ncc2F)c2ccc(C(=O)NC3(C)CCS(=O)(=O)CC3)cc21)C(C)(C)O [WO2022076495, EXAMPLE 72a]	6.4 nM
C[C@@H](n1c(=O)n(-c2cccc(OCC(F)F)c2)c2ccc(C(=O)NC3(C)CCS(=O)(=O)CC3)cc21)C(C)(C)O [WO2022076495, EXAMPLE 68b]	1.8 nM
C[C@H](n1c(=O)n(-c2cccc(OC(F)F)c2)c2ccc(C(=O)NC3(C)CCS(=O)(=O)CC3)cc21)C(C)(C)O [WO2022076495, EXAMPLE 67a]	1.6 nM
CC1(NC(=O)c2cc3c(cc2F)n(-c2cccc(OC(F)F)c2)c(=O)n3C2CCOCC2)CS(=O)(=O)C1 [WO2022076495, EXAMPLE 36]	19 nM
C[C@H](n1c(=O)n(-c2cc(OCC(F)F)ccc2F)c2cc(F)c(C(=O)NC3(C)CCS(=O)(=O)CC3)cc21)C(C)(C)O [WO2022076495, EXAMPLE 75a]	1.5 nM
C[C@@H](n1c(=O)n(-c2cc(OC(F)(F)F)ccc2F)c2ccc(C(=O)NC3(C)CCS(=O)(=O)CC3)cc21)C(C)(C)O [WO2022076495, EXAMPLE 71b]	5.4 nM
C[C@@H](C(F)F)n1c(=O)n(-c2cccc(OC(F)F)c2)c2ccc(C(=O)NC3(C)CCS(=O)(=O)CC3)cc21 [WO2022076495, EXAMPLE 45b]	101 nM
CC(C)n1c(=O)n(-c2cccc(OC(F)F)c2)c2ccc(C(=O)NCC3(O)CCOC3)cc21 (stereo unspecified) [WO2022076495, EXAMPLE 62]	> 9990 nM
CC(C)n1c(=O)n(-c2cc(OCC(F)F)ncc2F)c2ccc(C(=O)NC3(C)CCS(=O)(=O)CC3)cc21 [WO2022076495, EXAMPLE 15]	6.7 nM
CC[C@@H](C)n1c(=O)n(-c2cccc(OC(F)F)c2)c2ccc(C(=O)NC3(C)CS(=O)(=O)C3)cc21 [WO2022076495, EXAMPLE 46a]	81 nM
CC1(NC(=O)c2ccc3c(c2)n(S(=O)(=O)c2ccccc2)c(=O)n3-c2cccc(OC(F)F)c2)CCS(=O)(=O)CC1 [WO2022076495, EXAMPLE 86]	> 9990 nM
C[C@H](n1c(=O)n(-c2cc(OC(F)(F)F)ccc2F)c2ccc(C(=O)NC3(C)CCS(=O)(=O)CC3)cc21)C(C)(C)O [WO2022076495, EXAMPLE 71a]	71 nM
CC(C)n1c(=O)n(-c2cccc(OC(F)F)c2)c2cc(F)c(C(=O)NC(C)C(C)(C)O)cc21 (stereo unspecified) [WO2022076495, EXAMPLE 27]	> 10000 nM
C[C@H](n1c(=O)n(-c2cc(OCC(F)F)ccc2F)c2ccc(C(=O)NC3(C)CCS(=O)(=O)CC3)cc21)C(C)(C)O [WO2022076495, EXAMPLE 73a]	2.6 nM
CCOc1cc(-n2c(=O)n([C@H](C)C(C)(C)O)c3cc(C(=O)NC4(C)CS(=O)(=O)C4)ccc32)c(F)cn1 [WO2022076495, EXAMPLE 78a]	123 nM
CC(C)n1c(=O)n(-c2cccc(OC(F)F)c2)c2cc(F)c(C(=O)NC3(C)CS(=O)(=O)C3)cc21 [WO2022076495, EXAMPLE 24]	66 nM and 54 nM
CCOc1cc(-n2c(=O)n(C(C)C)c3cc(C(=O)NC4(C)CS(=O)(=O)C4)ccc32)c(F)cn1 [WO2022076495, EXAMPLE 16]	31 nM
C[C@H](n1c(=O)n(-c2cc(OCC(F)F)ncc2F)c2cc(F)c(C(=O)NC3(C)CCS(=O)(=O)CC3)cc21)C(C)(C)O [WO2022076495, EXAMPLE 74a]	6.1 nM
CC(C)n1c(=O)n(-c2cc(OC(F)F)ncc2F)c2cc(F)c(C(=O)NC3(C)CCS(=O)(=O)CC3)cc21 [WO2022076495, EXAMPLE 115]	4.1 nM
